Read-outs that look alike come from different tables or passages of the source.
Key:
[1] = tested on: PC-3 (human prostate adenocarcinoma); experiment: Cytotoxicity, sulforhodamine B (SRB) microculture assay; format: cell-based; details: for inhibition at 25 µM: read-out: % of Inhibition (cytotoxic screening)
Procedure: (§1) The cytotoxicity of all compounds was tested against six cancer cell lines: U251 (human glioblastoma cell line), PC-3 (human prostate adenocarcinoma), K562 (human chronic myelogenous leukemia), HCT-15 (human colon adenocarcinoma), MCF-7 (human mammary adenocarcinoma), and SKLU-1 (human lung adenocarcinoma). Cell lines were supplied by the U.S. National Cancer Institute (NCI). The cell lines were cultured in an RPMI-1640 medium supplemented with 10% fetal bovine serum, […] L-glutamine, 10,000 units/mL penicillin G sodium, 10,000 µg/mL streptomycin sulfate, 25 µg/mL amphotericin B (Invitrogen/Gibco™, Thermo Fisher Scientific, Waltham, MA, USA), and 1% non-essential amino acids (Gibco). They were maintained at 37 °C in a humidified atmosphere with 5% CO2. […] The human tumor cytotoxicity was determined using the protein-binding dye sulforhodamine B (SRB) in a microculture assay to measure cell growth, as described in the protocols established by the NCI [39, 40, 41].

[2] = tested on: SKLU-1 (human lung adenocarcinoma); experiment: as above; format: cell-based; details: for inhibition at 25 µM: SK-LU-1, 25 μM, read-out: % of Inhibition (cytotoxic screening)
Procedure: as §1

[3] = tested on: K562 (human chronic myelogenous leukemia); experiment: as above; format: cell-based; details: for inhibition at 25 µM: read-out: % of Inhibition (cytotoxic screening)
Procedure: as §1

[4] = tested on: MCF-7 (human mammary adenocarcinoma); experiment: as above; format: cell-based; details: for inhibition at 25 µM: MCF7, 25 μM, read-out: % of Inhibition (cytotoxic screening)
Procedure: as §1

[5] = tested on: HCT-15 (human colon adenocarcinoma); experiment: as above; format: cell-based; details: for inhibition at 25 µM: read-out: % of Inhibition (cytotoxic screening)
Procedure: as §1

[6] = tested on: U251 (human glioblastoma cell line); experiment: as above; format: cell-based; details: for inhibition at 25 µM: U-251, 25 μM, read-out: % of Inhibition (cytotoxic screening)
Procedure: as §1

[7] = Cytotoxicity towards healthy cell line; format: cell-based, monkey; details: monkey, COS-7 kidney cells; COS7; 25 μM; read-out: % of Inhibition (cytotoxic screening)
[8] = tested on: lipid peroxidation in rat brain homogenate; experiment: Inhibition of lipid peroxidation (TBARS) in rat brain homogenate, FeSO4-induced; format: biochemical; details: for Inhibition (%) of lipid peroxidation / TBARS / IC50: mean ± SEM, n = 3; for IC50: rat brain homogenate, TBARS
Procedure: Adult male Wistar rats (200–250 g) were provided by the Instituto de Fisiología Celular, Universidad Nacional Autónoma de México (UNAM). The procedures and care of animals were conducted in conformity with the Mexican Official Norm for Animal Care and Handling NOM-062-ZOO-1999. They were maintained at 23 ± 2 °C on a 12/12 h light-dark cycle with ad libitum access to food and water.
Animal sacrifice was carried out avoiding unnecessary pain. The rats were sacrificed with CO2. The cerebral tissue (whole brain) was rapidly dissected and homogenized in phosphate-buffered saline (PBS) solution (0.2 g of KCl, 0.2 g of KH2PO4, 8 g of NaCl, and 2.16 g of NaHPO4.7H2O/L, pH adjusted to 7.4) as described elsewhere to produce a 1/10 (w/v) homogenate. The homogenate was centrifuged at 800 rcf (relative centrifugal field) for 10 min. The supernatant protein content was measured using Folin and Ciocalteu’s phenol reagent and adjusted with PBS at 2.666 mg of protein/mL.
As an index of lipid peroxidation, TBARS levels were measured using rat brain homogenates according to the method described by Ng and co-workers, with some modifications. A supernatant (375 µL) was added with 50 µL of 20 µM EDTA and 25 µL of each sample concentration dissolved in DMSO (25 µL of DMSO for the control group) and incubated at 37 °C for 30 min. The lipid peroxidation was started adding 50 µL of freshly prepared 100 µM FeSO4 solution (final concentration 10 µM) and incubated at 37 °C for 1h. The TBARS measurements were obtained as described by Ohkawa and co-workers, with some modifications. To each tube 500 µL of TBA reagent (0.5% 2-thiobarbituric acid in 0.05 N NaOH and 30% trichloroacetic acid, in 1:1 ratio) was added and the final suspension was cooled on ice for 10 min, centrifuged at 13,400 rcf for 5 min and heated at 80 °C in a water bath for 30 min. After cooling at room temperature, the absorbance of 200 µL of supernatant was measured at λ = 540 nm in a Microplate Reader Synergy/HT BIOTEK Instrument, Inc., Winooski, VT, USA. The concentration of TBARS was calculated by interpolation on a standard curve of tetra-methoxypropane (TMP) as a precursor of MDA [38]. Results are expressed as n moles of TBARS per mg of protein. The inhibition ratio (IR [%]) was calculated using the formula IR = (C − E) × 100/C, where C is the control absorbance and E is the sample absorbance. Butylated hydroxytoluene (BHT) and α tocopherol were used as positive standards. All data are presented as mean ± standard error (SEM). The data were analyzed by one-way analysis of variance (ANOVA) followed by Dunnett’s test for comparison against a control. Values of p ≤ 0.05 (*) and p ≤ 0.01 (**) were considered statistically significant.

[9] = tested on: healthy monkey kidney cell line (COS-7); experiment: Cytotoxicity towards healthy cell line; format: cell-based; details: COS7
[10] = concentration 1 (unit not given)
[11] = concentration 10 (unit not given)
[12] = concentration 100 (unit not given)

| Compound | inhibition at 25 µM ([1]; Homo sapiens, 25 μM) [%] | inhibition at 25 µM ([2]; Homo sapiens) [%] | inhibition at 25 µM ([3]; Homo sapiens, 25 μM) [%] | inhibition at 25 µM ([4]; Homo sapiens) [%] | inhibition at 25 µM ([5]; Homo sapiens, 25 μM) [%] | inhibition at 25 µM ([6]; Homo sapiens) [%] | inhibition at 25 µM [7] [%] | % of Inhibition (lipoperoxidation screening) [8, 10] [%] | % of Inhibition (lipoperoxidation screening) [8, 11] [%] | % of Inhibition (lipoperoxidation screening) [8, 12] [%] | % of Inhibition (cytotoxic screening) ([1]; 25 μM) [%] | % of Inhibition (cytotoxic screening) ([2]; 25 μM) [%] | % of Inhibition (cytotoxic screening) ([3]; 25 μM) [%] | % of Inhibition (cytotoxic screening) ([4]; 25 μM) [%] | % of Inhibition (cytotoxic screening) ([6]; 25 μM) [%] | % of Inhibition (cytotoxic screening) ([9]; 25 μM) [%] | other results |
| --- | --- | --- | --- | --- | --- | --- | --- | --- | --- | --- | --- | --- | --- | --- | --- | --- | --- |
| COc1cc(/C=C/C(=O)CC(=O)/C=C/c2ccc(O)c(OC)c2)ccc1O [Curc, Curcumin] | 94.4 | 94.5 | 80.1 | 82.4 | 80 | 67.1 | 71.6 | – | – | – | – | – | – | – | – | – | – |
| O=C(/C=C(O)/C=C/c1ccco1)/C=C/c1ccco1 [FuranCurc, Furancurcumin] | 10.8 | 0 | 6.4 | 0 | 0 | 0 | 46.2 | −6.24 | 1.59 | 93.46 | – | – | – | – | – | – | Inhibition (%) of lipid peroxidation ([8]; 13.34 μM): 5.6 ± 5.31%; TBARS ([8]; 13.34 μM): 9.385 ± 0.416 nmol/mg prot.; Inhibition (%) of lipid peroxidation ([8]; 17.78 μM): 13.14 ± 5.84%; TBARS ([8]; 17.78 μM): 8.634 ± 0.462 nmol/mg prot.; Inhibition (%) of lipid peroxidation ([8]; 23.71 μM): 25.93 ± 9.98%; TBARS ([8]; 23.71 μM): 7.356 ± 0.928 nmol/mg prot.; Inhibition (%) of lipid peroxidation ([8]; 31.62 μM): 48.97 ± 13.11%; TBARS ([8]; 31.62 μM): 5.091 ± 1.356 nmol/mg prot.; Inhibition (%) of lipid peroxidation ([8]; 42.17 μM): 64.24 ± 10.44%; TBARS ([8]; 42.17 μM): 3.590±1.114 nmol/mg prot.; Inhibition (%) of lipid peroxidation ([8]; 56.23 μM): 81.06 ± 1.43%; TBARS ([8]; 56.23 μM): 1.891±0.178 nmol/mg prot.; Inhibition (%) of lipid peroxidation ([8]; 74.13 μM): 88.25 ± 1.57%; TBARS ([8]; 74.13 μM): 1.167±0.148 nmol/mg prot.; IC50 [8]: 33.9 ± 4.65 µM; IC50 ([1]; Homo sapiens): 35.9 ± 3.9 µM; IC50 ([2]; Homo sapiens, SK-LU-1): 15.5 ± 2 µM; IC50 ([6]; Homo sapiens, U-251): 11.7 ± 2.9 µM |
| O=C(C=C([O-])/C=C/c1ccco1)/C=C/c1ccco1.O=C(C=C([O-])/C=C/c1ccco1)/C=C/c1ccco1.[Cu+2] [FuranCurc-Cu] | – | – | – | – | – | – | – | 0.83 | 27.46 | 88.94 | 100 | 95.0 | 90.1 | 92.8 | 100 | 100 | IC50 [1]: 3 ± 0.1 µM; IC50 [2]: 6.5 ± 0.2 µM; % of Inhibition (cytotoxic screening) ([5]; 25 μM): 72.4%; IC50 [6]: 4 ± 0.3 µM |
| Cn1cccc1/C=C/C(=O)/C=C(O)/C=C/c1cccn1C [N-methyl-pyrCurc, N-methylpyrrolcurcumin] | 60.4 | 100 | 65.8 | 99.9 | 18.1 | 52.8 | 100 | 13.71 | 17.41 | 84.75 | – | – | – | – | – | – | IC50 ([2]; Homo sapiens, SK-LU-1): 13 ± 1.9 µM; IC50 ([3]; Homo sapiens): 12.9 ± 1 µM; IC50 ([4]; Homo sapiens, MCF7): 27.3 ± 4.3 µM; IC50 ([5]; Homo sapiens): 22.4 ± 2.4 µM; IC50 ([6]; Homo sapiens, U-251): 25.8 ± 2.7 µM |
| Cn1cccc1/C=C/C(=O)C=C([O-])/C=C/c1cccn1C.Cn1cccc1/C=C/C(=O)C=C([O-])/C=C/c1cccn1C.[Cu+2] [N-methyl-pyrCurc-Cu] | – | – | – | – | – | – | – | −7.20 | 38.48 | 71.20 | 64.99 | 100 | 74.67 | 100 | 71.62 | 100 | IC50 [2]: 10.3 ± 1 µM; IC50 [3]: 5.9 ± 1.5 µM; IC50 [4]: 10.8 ± 1.7 µM; IC50 [5]: 12.9 ± 2.1 µM; % of Inhibition (cytotoxic screening) ([5]; 25 μM): 100%; IC50 [6]: 10.6 ± 1 µM |
| Cn1cccc1/C=C/C(=O)C=C([O-])/C=C/c1cccn1C.Cn1cccc1/C=C/C(=O)C=C([O-])/C=C/c1cccn1C.[Mg+2] [N-methyl-pyrCurc-Mg] | – | – | – | – | – | – | – | −4.22 | 12.24 | 69.70 | – | – | – | – | – | – | % of Inhibition (cytotoxic screening) ([1]; 12.5 μM): 1.4%; % of Inhibition (cytotoxic screening) ([2]; 12.5 μM): 18.1%; % of Inhibition (cytotoxic screening) ([3]; 12.5 μM): 28.8%; % of Inhibition (cytotoxic screening) ([4]; 12.5 μM): 35.7%; % of Inhibition (cytotoxic screening) ([5]; 12.5 μM): 15.8%; % of Inhibition (cytotoxic screening) ([6]; 12.5 μM): 19.5%; % of Inhibition (cytotoxic screening) ([9]; 12.5 μM): 23.4% |
| O=C(C=C([O-])/C=C/c1cccs1)/C=C/c1cccs1.O=C(C=C([O-])/C=C/c1cccs1)/C=C/c1cccs1.[Cu+2] [ThiopheneCurc-Cu] | – | – | – | – | – | – | – | 5.67 | 51.00 | 53.96 | 63.6 | 91.0 | 84.4 | 57.9 | 58.2 | 0 | Inhibition (%) of lipid peroxidation ([8]; 3.16 μM): 12.51 ± 3.57%; TBARS ([8]; 3.16 μM): 4.665 ± 0.144 nmol/mg prot.; Inhibition (%) of lipid peroxidation ([8]; 5.62 μM): 31.7 ± 2.33%; TBARS ([8]; 5.62 μM): 3.651 ± 0.200 nmol/mg prot.; Inhibition (%) of lipid peroxidation ([8]; 10 μM): 49.46 ± 1.96%; TBARS ([8]; 10 μM): 2.693 ± 0.029 nmol/mg prot.; Inhibition (%) of lipid peroxidation ([8]; 17.78 μM): 57.25 ± 1.19%; TBARS ([8]; 17.78 μM): 2.280 ± 0.052 nmol/mg prot.; Inhibition (%) of lipid peroxidation ([8]; 31.62 μM): 55.9 ± 1.51%; TBARS ([8]; 31.62 μM): 2.351 ± 0.046 nmol/mg prot.; Inhibition (%) of lipid peroxidation ([8]; 56.23 μM): 58.14 ± 2.66%; TBARS ([8]; 56.23 μM): 2.225 ± 0.055 nmol/mg prot.; IC50 [8]: 10.3 ± 0.59 µM; IC50 [3]: 38.6 ± 8.1 µM |

Reference: article PMC9919861, “Homoleptic Complexes of Heterocyclic Curcuminoids with Mg(II) and Cu(II): First Conformationally Heteroleptic Case, Crystal Structures, and Biological Properties” (Molecules, 2023)
